# In US12599657B2 (priority 2020, dated 2026):
# Where two headings read alike, the source gives them in different places.
# Assays:
# E. acervulina [1] = details: First Study; DOT 26; Johnson and Reid 0 to 4 score; Salinomycin 60 gms/ton No Vaccine; Cocci Vaccine alone
# E. tenella [2] = details: Third Study; feces Day 26; Salinomycin 60 g/ton No Vacc; Disclosed compound 1.0/1.0/0.5 lb/ton with Vacc
# E. maxima [3] = details: First Study; DOT 26; Johnson and Reid 0 to 4 score; Salinomycin 60 gms/ton No Vaccine; Cocci Vaccine alone
# E. acervulina [4] = details: Third Study; feces Day 26; Salinomycin 60 g/ton No Vacc; Disclosed compound 1.0/1.0/0.5 lb/ton with Vacc
# E. tenella [5] = details: First Study; feces on DOT 26; Salinomycin 60 gms/ton No Vaccine; Cocci Vaccine alone
# [6] = system: E. acervulina, E. maxima, and E. tenella; assay: Third Study: average coccidia lesion score; type: in vivo, male broiler chicks; details: Day 26, 0 to 4 score, Salinomycin 60 g/ton No Vacc, Disclosed compound 1.0/1.0/0.5 lb/ton with Vacc
# [7] = system: E. acervulina, E. maxima, and E. tenella; assay: First Study: total oocysts per gram of feces; type: in vivo, broiler; details: feces on DOT 26, Salinomycin 60 gms/ton No Vaccine, Cocci Vaccine alone
# [8] = system: E. acervulina, E. maxima, and E. tenella; assay: Third Study: total oocysts per gram of feces; type: in vivo, male broiler chicks
# E. maxima [9] = details: Third Study; Day 26; 0 to 4 score; Salinomycin 60 g/ton No Vacc; Disclosed compound 1.0/1.0/0.5 lb/ton with Vacc
# [10] = system: E. acervuline, E. maxima, and E. tenella; assay: Third Study: broiler performance (feed intake, FCR, weight gain, mortality) under coccidia challenge; type: in vivo, male broiler chicks; details: Day 0 to 41, challenge day 21, Salinomycin 60 g/ton No Vacc, Disclosed compound 1.0/1.0/0.5 lb/ton with Vacc
# [11] = system: E. acervulina, E. maxima, and E. tenella; assay: First Study: average coccidia lesion score; type: in vivo, broiler; details: DOT 26, Johnson and Reid 0 to 4 score, Salinomycin 60 gms/ton No Vaccine, Cocci Vaccine alone
# E. maxima [12] = details: Third Study; feces Day 26; Salinomycin 60 g/ton No Vacc; Disclosed compound 1.0/1.0/0.5 lb/ton with Vacc
# E. acervulina [13] = details: Third Study; Day 26; 0 to 4 score; Salinomycin 60 g/ton No Vacc; Disclosed compound 1.0/1.0/0.5 lb/ton with Vacc
# [14] = system: E. acervuline, E. maxima, and E. tenella; assay: Third Study: broiler performance (feed intake, FCR, weight gain, mortality) under coccidia challenge; type: in vivo, male broiler chicks; details: Disclosed compound 1.0/1.0/0.5 lb/ton with Vacc
# Description: (§1) Testing in all three studies set forth below was undertaken using a high oocyst dose vaccine, Coccivac-B52 (trademark, Intervet Inc.), a product sold by Merck Animal Health. According to the manufacturer, Coccivac-B52 contains E. acervulina, E. maxima, E. mivati, and E. tenella. The vaccine was mixed with water at a dosage of 240 ml of water per 1,000 doses. The vaccine-water combination was placed in a sealed vaccine container and mixed by stirring and inversion of the container. The mixed vaccine-water combination was sprayed onto each chick when one day old in a conventional spray cabinet. It was estimated that each chick ingested an equal number of droplets so as to result in the ingestion of about 240 μL dose per chick.
# Rations consisted of non-medicated commercial-type broiler starter, grower, and finisher diets compounded according to NRC guidelines and contain feedstuffs commonly used in the United States. Day-of-hatch male broiler chicks were utilized in the study. Rations were fed ad libitum from date of chick arrival as follows: Starter—day 0 until day 14, grower day 14 to day 28, and finisher from day 28 to day 42 (the end date of the study). Coccidia vaccination for treatments 4 and 5 only.
# One thousand five hundred birds (1,500) were randomly assigned to 5 treatment groups with 12 replicate pens per treatment and 25 birds per pen. The study began when birds were placed (day-of-hatch; DAY 0), at which time birds were allocated to experimental pens. On day 0, group body weights were recorded by pen. No birds were replaced during the course of the study.
# All birds were weighed by pen on days 0, 14, 28, and 42. Feed added to each pen's feeder was weighed at the beginning of each formulation period on day 0 (starter), day 14 (grower), and day 28 (finisher). Feed was distributed as needed to feeders from pre-weighed bags assigned to each pen throughout each period. Feed remaining in feeders was weighed and disposed of on days 14, 28, and 42. The trial was terminated on day 42.
# [15] = system: E. acervulina, E. maxima, and E. tenella; assay: First Study: broiler performance (feed intake, FCR, weight gain, mortality) under coccidia challenge; type: in vivo; details: Cocci Vaccine alone
# Description: as §1
# The rations consisted of non-medicated commercial-type broiler starter, grower, and finisher diets compounded according to NRC guidelines and contained feedstuffs commonly used in the United States. As a common regime rations for some but not necessarily all studies were fed ad libitum from date of chick arrival as follows: Starter—DOT 0 until DOT 14, grower DOT 14 to DOT 28, and finisher from DOT 28 to DOT 42 (study termination).
# Diets were fed as crumbles in starter and pellets in grower and finisher. Experimental treatment feeds were prepared from a basal feed formulation. Quantities of all basal feed and test articles included in treatment group batches were documented and included with source data files. Treatment feeds were mixed prior to pelleting to assure uniform distribution of respective test articles.
# Fifteen hundred birds (1,500) were assigned to six (6) treatment groups with ten (10) replicate pens per treatment and 25 birds per pen. The study began when birds were placed (day-of-hatch; DOT 0), at which time birds were allocated to experimental pens. Only healthy birds were selected. On DOT 0, group body weights were recorded by pen. No birds were replaced during the course of the study.
# Birds received treatment-appropriate feed from day 0 to day 42. On day 14, remaining starter feed was removed, weighed, and replaced with grower feed to day 28. On day 28, the remaining grower feed was removed, weighed back, and replaced with finisher feed to day 42.
# On Day 42, the trial was terminated.
# E. tenella [16] = details: First Study; DOT 26; Johnson and Reid 0 to 4 score; Salinomycin 60 gms/ton No Vaccine; Cocci Vaccine alone
# E. tenella [17] = details: Third Study; Day 26; 0 to 4 score; Salinomycin 60 g/ton No Vacc; Disclosed compound 1.0/1.0/0.5 lb/ton with Vacc
# E. maxima [18] = details: First Study; feces on DOT 26; Salinomycin 60 gms/ton No Vaccine; Cocci Vaccine alone
# E. acervulina [19] = details: First Study; feces on DOT 26; Salinomycin 60 gms/ton No Vaccine; Cocci Vaccine alone
# [20] = Day 0 to 14, challenge day 21, Salinomycin 60 g/ton No Vacc
# [21] = Day 0 to 28, challenge day 21, Salinomycin 60 g/ton No Vacc
# [22] = Day 0 to 14, cocci challenge Day 20, Salinomycin 60 gms/ton No Vaccine
# [23] = Day 0 to 28, cocci challenge Day 20, Salinomycin 60 gms/ton No Vaccine
# [24] = Day 0 to 42, cocci challenge Day 20, Salinomycin 60 gms/ton No Vaccine
smiles,measurement,setting,value
CC[C@@H](C(=O)[C@@H](C)[C@@H](O)[C@H](C)[C@@H]1O[C@@H]([C@@H](CC)C(=O)O)CC[C@@H]1C)[C@H]1O[C@]2(C=C[C@@H](O)[C@]3(CC[C@@](C)([C@H]4CC[C@](O)(CC)[C@H](C)O4)O3)O2)[C@H](C)C[C@@H]1C [Salinomycin],"Mean Coccidia Lesion Score, E. acervulina",E. acervulina [1],1.80BC
same,OPG T,E. tenella [2],"21,455A oocysts per gram"
same,"Mean Coccidia Lesion Score, E. maxima",E. maxima [3],1.93A
same,OPG A,E. acervulina [4],"23,995A oocysts per gram"
same,OPG T,E. tenella [5],834A oocysts per gram
same,"Mean Coccidia Lesion Score, Average",[6],2.04AB
same,Total OPG,[7],52866AB oocysts per gram
same,count of oocysts among groups,[8]; day of feces collection (day 27),highest count of oocysts
same,Total OPG,"[8]; feces Day 26, Salinomycin 60 g/ton No Vacc, Disclosed compound 1.0/1.0/0.5 lb/ton with Vacc","55,117A oocysts per gram"
same,"Mean Coccidia Lesion Score, E. maxima",E. maxima [9],1.78AB
same,Adjusted FCR (FCR adjusted for mortality),[10],1.60AB
same,Cocci Percent Mortality,[10],0.00A Percent
same,Feed Intake,[10],92.63B
same,Non-Adjusted FCR,[10],1.61BC
same,Percent Mortality,[10],1.33B Percent
same,Weight Gain,[10],2.49BC kg
same,Percent Mortality,[10]; listed as salinomycin,1.33%
same,"Mean Coccidia Lesion Score, Average",[11],1.97BC
same,OPG M,E. maxima [12],"9,666A oocysts per gram"
same,"Mean Coccidia Lesion Score, E. acervulina",E. acervulina [13],2.31A
same,Adjusted FCR (FCR adjusted for mortality),[14]; [20],1.41A
same,Feed Intake,[14]; [20],12.09A
same,Non-Adjusted FCR,[14]; [20],1.42A
same,Weight Gain,[14]; [20],0.34B kg
same,Adjusted FCR (FCR adjusted for mortality),[14]; [21],1.50AB
same,Feed Intake,[14]; [21],44.75B
same,Non-Adjusted FCR,[14]; [21],1.51B
same,Weight Gain,[14]; [21],1.20B kg
same,Adjusted FCR (feed conversion ratio adjusted for mortality),[15]; [22],1.58A
same,Feed Intake,[15]; [22],11.48A
same,Non-Adjusted FCR,[15]; [22],1.60A
same,Weight Gain,[15]; [22],0.31B kg
same,Adjusted FCR (feed conversion ratio adjusted for mortality),[15]; [23],1.64B
same,Feed Intake,[15]; [23],38.69C
same,Non-Adjusted FCR,[15]; [23],1.78AB
same,Weight Gain,[15]; [23],1.01B kg
same,Adjusted FCR (feed conversion ratio adjusted for mortality),[15]; [24],1.67B
same,Cocci Percent Mortality,[15]; [24],8.40A Percent
same,Feed Intake,[15]; [24],80.16B
same,Non-Adjusted FCR,[15]; [24],1.81AB
same,Percent Mortality,[15]; [24],18.00A Percent
same,Weight Gain,[15]; [24],2.39AB kg
same,"Mean Coccidia Lesion Score, E. tenella",E. tenella [16],2.17AB
same,"Mean Coccidia Lesion Score, E. tenella",E. tenella [17],2.03AB
same,OPG M,E. maxima [18],2615A oocysts per gram
same,OPG A,E. acervulina [19],49418AB oocysts per gram
